Test results reported in patent US9476099B2 (TRUSTEES OF DARTMOUTH COLLEGE, priority 2012, dated 2016).

Test system: gene promoters in NT2/D1-R1 control and DNMT3B knockdown cells
Assay: Genome-wide promoter methylation analysis, HumanMethylation27 BeadChip (Table 15)
Type: cell-based, human
Details: sh-ctrl + 5aza
Experimental: DNA methylation analysis was performed in samples in triplicate using the […] […] assay with the HumanMethylation27 BeadChip ([…]) and the BeadChip was scanned on the BeadArray Reader ([…]), according to the manufacturer's instructions. Raw data was normalized and analyzed with Genome Studio software ([…]). The HumanMethylation27 BeadChip assays 27,578 CpGs covering more than 14,000 genes, mostly from promoter regions. […] Hierarchical clustering was performed as stated above. HumanMethylation27 BeadChip data and gene expression microarray data were submitted to NCBI GEO.

Nc1ncn([C@H]2C[C@H](O)[C@@H](CO)O2)c(=O)n1 [5aza]
SERPING1 cg12783776 promoter methylation Mean: 0.601 | SFRS16 cg19317638 promoter methylation Mean: 0.560 | SFXN3 cg04880063 promoter methylation Mean: 0.170 | SH3BGRL2 cg03080985 promoter methylation Mean: 0.398 | SHH cg25167838 promoter methylation Mean: 0.175 | SKIP cg04072323 promoter methylation Mean: 0.432 | SLC30A2 cg05674944 promoter methylation Mean: 0.658 | SMCP cg09542291 promoter methylation Mean: 0.705 | SNX9 cg26845300 promoter methylation Mean: 0.985 | SOX17 cg21226224 promoter methylation Mean: 0.858 | SPRR1B cg24884084 promoter methylation Mean: 0.488 | SSH1 cg11747499 promoter methylation Mean: 0.529 | SSTR1 cg27590397 promoter methylation Mean: 1.209 | TAC1 cg07550362 promoter methylation Mean: 0.798 | TADA3L cg09279263 promoter methylation Mean: 0.445 | TERT cg02545192 promoter methylation Mean: 0.547 | TNFSF10 cg16555388 promoter methylation Mean: 0.687 | TNRC4 cg26093148 promoter methylation Mean: 0.866 | TNRC15 cg07230446 promoter methylation Mean: 0.425 | TRAF3 cg24165760 promoter methylation Mean: 0.878 | TRIM2 cg12793610 promoter methylation Mean: 0.815 | TRIM36 cg10693071 promoter methylation Mean: 0.822 | TRPM3 cg20555507 promoter methylation Mean: 0.413 | UNC5D cg00297600 promoter methylation Mean: 0.612 | WDR13 cg25053301 promoter methylation Mean: 0.317 | ZFHX1B cg15377518 promoter methylation Mean: 0.680 | ZNF222 cg09757277 promoter methylation Mean: 0.431 | cg07512517 promoter methylation Mean: 0.619 | Mean promoter methylation, ABCA3 cg02331561 (NT2/D1-R1 control cells): 0.189 | Mean promoter methylation, ABLIM3 cg05026186 (NT2/D1-R1 control cells): 0.365 | Mean promoter methylation, ACTL6B cg08572611 (NT2/D1-R1 control cells): 0.210 | Mean promoter methylation, ANKRD46 cg23737055 (NT2/D1-R1 control cells): 0.329 | Mean promoter methylation, ARNT2 cg17788682 (NT2/D1-R1 control cells): 0.212 | Mean promoter methylation, B4GALNT3 cg05769161 (NT2/D1-R1 control cells): 0.577 | Mean promoter methylation, BTBD1 cg16958189 (NT2/D1-R1 control cells): 0.392 | Mean promoter methylation, C1RL cg22593785 (NT2/D1-R1 control cells): 0.347 | Mean promoter methylation, C10orf10 cg17186163 (NT2/D1-R1 control cells): 0.371 | Mean promoter methylation, C10orf72 cg02569613 (NT2/D1-R1 control cells): 0.553 | Mean promoter methylation, C12orf34 cg01335367 (NT2/D1-R1 control cells): 0.987 | Mean promoter methylation, C17orf40 cg18042079 (NT2/D1-R1 control cells): 0.207 | Mean promoter methylation, C19orf30 cg07456645 (NT2/D1-R1 control cells): 0.552 | Mean promoter methylation, C20orf29 cg09158909 (NT2/D1-R1 control cells): 0.322 | Mean promoter methylation, C22orf9 cg11221513 (NT2/D1-R1 control cells): 0.402 | Mean promoter methylation, CACNA1G cg18454685 (NT2/D1-R1 control cells): 0.587 | Mean promoter methylation, CAMKK2 cg01369981 (NT2/D1-R1 control cells): 0.344 | Mean promoter methylation, CART cg23300372 (NT2/D1-R1 control cells): 0.445 | Mean promoter methylation, CCKBR cg13346411 (NT2/D1-R1 control cells): 0.411 | Mean promoter methylation, CDC42EP1 cg13951472 (NT2/D1-R1 control cells): 0.342 | Mean promoter methylation, CDKN2A cg10895543 (NT2/D1-R1 control cells): 0.249 | Mean promoter methylation, CHST8 cg24739326 (NT2/D1-R1 control cells): 0.660 | Mean promoter methylation, CPSF1 cg20326853 (NT2/D1-R1 control cells): 0.408 | Mean promoter methylation, CSMD1 cg22619018 (NT2/D1-R1 control cells): 0.365 | Mean promoter methylation, DCTN3 cg22579849 (NT2/D1-R1 control cells): 0.613 | Mean promoter methylation, DDX42 cg05797656 (NT2/D1-R1 control cells): 0.226 | Mean promoter methylation, DGKD cg25506396 (NT2/D1-R1 control cells): 0.238 | Mean promoter methylation, DGKI cg06277657 (NT2/D1-R1 control cells): 0.365 | Mean promoter methylation, DKK2 cg01404615 (NT2/D1-R1 control cells): 0.819 | Mean promoter methylation, DUSP8 cg02271621 (NT2/D1-R1 control cells): 0.296 | Mean promoter methylation, EHD2 cg12603043 (NT2/D1-R1 control cells): 0.398 | Mean promoter methylation, ELK1 cg21860846 (NT2/D1-R1 control cells): 0.343 | Mean promoter methylation, EMP3 cg01795122 (NT2/D1-R1 control cells): 0.187 | Mean promoter methylation, EYA4 cg01805282 (NT2/D1-R1 control cells): 0.360 | Mean promoter methylation, FAM70B cg15350194 (NT2/D1-R1 control cells): 0.396 | Mean promoter methylation, FAM73B cg00729541 (NT2/D1-R1 control cells): 0.365 | Mean promoter methylation, FCHSD2 cg17114257 (NT2/D1-R1 control cells): 0.423 | Mean promoter methylation, FLJ20273 cg01704534 (NT2/D1-R1 control cells): 0.410 | Mean promoter methylation, FLJ20273 cg15967525 (NT2/D1-R1 control cells): 0.759 | Mean promoter methylation, FLJ42486 cg03734874 (NT2/D1-R1 control cells): 0.711 | Mean promoter methylation, GAB3 cg12938998 (NT2/D1-R1 control cells): 0.347 | Mean promoter methylation, GALR1 cg04534765 (NT2/D1-R1 control cells): 0.440 | Mean promoter methylation, GCN5L2 cg08434547 (NT2/D1-R1 control cells): 0.555 | Mean promoter methylation, GNAS cg00943909 (NT2/D1-R1 control cells): 0.621 | Mean promoter methylation, HBQ1 cg07703401 (NT2/D1-R1 control cells): 0.587 | Mean promoter methylation, HCN1 cg11285003 (NT2/D1-R1 control cells): 0.369 | Mean promoter methylation, HES6 cg24127874 (NT2/D1-R1 control cells): 0.763 | Mean promoter methylation, HEYL cg25462291 (NT2/D1-R1 control cells): 0.576 | Mean promoter methylation, HRH3 cg08186362 (NT2/D1-R1 control cells): 0.666 | Mean promoter methylation, ICAM1 cg22874046 (NT2/D1-R1 control cells): 0.349 | Mean promoter methylation, ID2 cg23525180 (NT2/D1-R1 control cells): 0.576 | Mean promoter methylation, IGFBP3 cg04796162 (NT2/D1-R1 control cells): 0.501 | Mean promoter methylation, KATNB1 cg15153383 (NT2/D1-R1 control cells): 0.474 | Mean promoter methylation, KCNAB1 cg23873703 (NT2/D1-R1 control cells): 0.548 | Mean promoter methylation, KCNC2 cg18573383 (NT2/D1-R1 control cells): 0.277 | Mean promoter methylation, KIAA1822 cg02867079 (NT2/D1-R1 control cells): 0.842 | Mean promoter methylation, KIAA1840 cg06121469 (NT2/D1-R1 control cells): 0.365 | Mean promoter methylation, KRTCAP2 cg11278262 (NT2/D1-R1 control cells): 0.432 | Mean promoter methylation, LGALS1 cg00292662 (NT2/D1-R1 control cells): 0.493 | Mean promoter methylation, LGR6 cg23578193 (NT2/D1-R1 control cells): 0.423 | Mean promoter methylation, LOX cg06508445 (NT2/D1-R1 control cells): 0.190 | Mean promoter methylation, MAP6D1 cg03705396 (NT2/D1-R1 control cells): 0.522 | Mean promoter methylation, MGC9850 cg21097640 (NT2/D1-R1 control cells): 0.292 | Mean promoter methylation, MRPL38 cg11653266 (NT2/D1-R1 control cells): 0.224 | Mean promoter methylation, MT cg14078309 (NT2/D1-R1 control cells): 0.213 | Mean promoter methylation, MYOD1 cg18555440 (NT2/D1-R1 control cells): 0.561 | Mean promoter methylation, OGG1 cg25415932 (NT2/D1-R1 control cells): 0.526 | Mean promoter methylation, OR10J1 cg25076881 (NT2/D1-R1 control cells): 0.576 | Mean promoter methylation, OSTbeta cg16029760 (NT2/D1-R1 control cells): 0.344 | Mean promoter methylation, PABPC4 cg12585282 (NT2/D1-R1 control cells): 0.296 | Mean promoter methylation, PDE8B cg18089852 (NT2/D1-R1 control cells): 0.203 | Mean promoter methylation, PHLDA2 cg01263716 (NT2/D1-R1 control cells): 0.504 | Mean promoter methylation, PHLDA2 cg04720330 (NT2/D1-R1 control cells): 0.379 | Mean promoter methylation, PIB5PA cg18053607 (NT2/D1-R1 control cells): 0.403 | Mean promoter methylation, PLOD1 cg23286660 (NT2/D1-R1 control cells): 0.468 | Mean promoter methylation, PPCDC cg11632617 (NT2/D1-R1 control cells): 0.523 | Mean promoter methylation, PRDM12 cg09191327 (NT2/D1-R1 control cells): 0.457 | Mean promoter methylation, PRMT8 cg23739862 (NT2/D1-R1 control cells): 0.125 | Mean promoter methylation, PTPRO cg19402885 (NT2/D1-R1 control cells): 0.671 | Mean promoter methylation, PTPRO cg27196745 (NT2/D1-R1 control cells): 0.570 | Mean promoter methylation, R3HDML cg17692403 (NT2/D1-R1 control cells): 0.529 | Mean promoter methylation, RAB37 cg12448933 (NT2/D1-R1 control cells): 0.483 | Mean promoter methylation, RASA4 cg05749161 (NT2/D1-R1 control cells): 0.157 | Mean promoter methylation, RASL11A cg06611744 (NT2/D1-R1 control cells): 0.348 | Mean promoter methylation, SCAMP3 cg01745448 (NT2/D1-R1 control cells): 0.308 | Mean promoter methylation, SCARA5 cg10171125 (NT2/D1-R1 control cells): 0.408 | Mean promoter methylation, SEC14L2 cg14452140 (NT2/D1-R1 control cells): 0.705 | Mean promoter methylation, SH3BGRL3 cg03100146 (NT2/D1-R1 control cells): 0.661 | Mean promoter methylation, SHH cg00577464 (NT2/D1-R1 control cells): 0.433 | Mean promoter methylation, SLC6A5 cg20632573 (NT2/D1-R1 control cells): 0.291 | Mean promoter methylation, SLC25A22 cg02973416 (NT2/D1-R1 control cells): 0.702 | Mean promoter methylation, SLC35C2 cg02413850 (NT2/D1-R1 control cells): 0.254 | Mean promoter methylation, SLIT1 cg07143898 (NT2/D1-R1 control cells): 0.325 | Mean promoter methylation, SORCS3 cg16787600 (NT2/D1-R1 control cells): 0.786 | Mean promoter methylation, SOX15 cg01029592 (NT2/D1-R1 control cells): 0.276 | Mean promoter methylation, SOX15 cg13098960 (NT2/D1-R1 control cells): 0.472 | Mean promoter methylation, SOX17 cg02919422 (NT2/D1-R1 control cells): 0.617 | Mean promoter methylation, STXBP3 cg11666924 (NT2/D1-R1 control cells): 0.260 | Mean promoter methylation, SUSD2 cg23349242 (NT2/D1-R1 control cells): 0.631 | Mean promoter methylation, TBXA2R cg09998229 (NT2/D1-R1 control cells): 0.659 | Mean promoter methylation, THAP3 cg11688219 (NT2/D1-R1 control cells): 0.581 | Mean promoter methylation, TMEM25 cg20001829 (NT2/D1-R1 control cells): 0.424 | Mean promoter methylation, TMEM106C cg25884854 (NT2/D1-R1 control cells): 0.482 | Mean promoter methylation, TRAPPC1 cg01667702 (NT2/D1-R1 control cells): 0.471 | Mean promoter methylation, UBA52 cg24356797 (NT2/D1-R1 control cells): 0.192 | Mean promoter methylation, UNQ2446 cg10574499 (NT2/D1-R1 control cells): 0.619 | Mean promoter methylation, VPREB1 cg18441959 (NT2/D1-R1 control cells): 0.524 | Mean promoter methylation, ZGPAT cg04078896 (NT2/D1-R1 control cells): 0.308 | Mean promoter methylation, ZGPAT cg18611245 (NT2/D1-R1 control cells): 0.736 | Mean promoter methylation, ZNF585B cg03751813 (NT2/D1-R1 control cells): 0.392 | Mean promoter methylation, ZNF702 cg07559730 (NT2/D1-R1 control cells): 0.457
